Tests used:
A53T a-syn or EV rats = assay: Striatal catecholamines by HPLC; format: in vivo, rat; details: A53T high titer
Procedure: Animals were secured in a stereotactic frame under isoflurane/oxygen anesthesia and ketoprofen (5 mg/kg) analgesia. The surgical site was shaved and sterilized with iodine/betadine prior to making a 2 cm incision along the midline. The scalp was exposed and a unilateral injection targeting the SN was performed at coordinates AP −5.2 mm, ML −2 mm and DV −7.5 mm with respect to the bregma as a point of reference. For each animal, a total volume of 2 μl of virus was injected at a rate of 0.5 μl/min using a microinjection pump and 10 μl Hamilton syringe with a 26-gauge needle. For A53T groups, 1 μl (low dose) or 1.34 μl (high dose) of AAV1/2-A53T a-syn (5.1 × 10^12 genomic particles/ml), 0.14 μl of AAV1/2-PDpep1.3-GFP or Scramble1.3-GFP (5.1 × 10^12 genomic particles/ml) and 0.86 μl or 0.52 μl of sterile PBS was injected; for EV groups, 1 μl (low dose) or 1.34 μl (high dose) of AAV1/2-EV (5.1 × 10^12 genomic particles/ml) replaced AAV1/2-A53T. […]
HPLC was performed as described. […] Catecholamines were determined from the supernatant. Values of catecholamines are expressed as ng analyte/mg total protein.

[1] = tested on: A53T a-syn-mediated cytotoxicity in HEK293 cells; assay: Pooled lentiviral 7-mer peptide cytotoxicity screen, A53T a-syn + MG132; format: cell-based, human;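 on Slope Norm Reads: reads normalized to total peptide reads per sample with scalar factor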
Text: We used a lentiviral library of 50,549 7-mer peptides enriched in PPI motifs[13] on a green fluorescent protein (GFP) scaffold (Fig. 1A). We infected cells in a pooled format and the amino acid sequence of each peptide served as its own barcode. By using a low multiplicity of infection followed by puromycin selection, each infected cell expressed one unique GFP-peptide. We screened for peptides that reduced a-syn-mediated cytotoxicity or a-syn oligomers in parallel (Fig. 1A). To cause cytotoxicity relevant to PD, we induced proteostatic stress in HEK293 cells by inhibiting the proteasome with MG132 and overexpressing human WT a-syn associated with idiopathic PD in one screen or the more toxic mutant A53T a-syn associated with familial PD in a second screen. This combination of a-syn overexpression and pharmacological proteasome inhibition led to death of most cells, with only those that expressed a protective peptide surviving. By extracting genomic DNA from the surviving cells and amplifying the peptide coding sequences, we identified the protective peptides (Fig. 1A). To detect a-syn oligomers, we used a protein fragment complementation assay (PCA) of a-syn oligomerization in HEK293 cells. In this assay, human A53T a-syn was fused to either the C- or N-terminal half of yellow fluorescent protein (YFP). No fluorescence is detectable while a-syn exists in monomers but, when a-syn oligomerizes, the two halves of YFP come in close enough proximity to form a functional, spontaneously fluorescent protein. […] Our screens yielded 10 hits (Table S1). The hit with the most reads (i.e., the most abundant) was the same peptide in all screens: IPIQLKA (named PDpep1) (Table S1). We validated the cytoprotective effects of PDpep1 in HEK293 cells overexpressing WT or A53T a-syn (Figs. 1B, S1A), as well as its ability to reduce WT or A53T a-syn oligomers in a luciferase-based PCA[18]–[20] compared to a scrambled control peptide (Figs. 1C, S1B).
HEK293T cells (ATCC, CRL-3216) were maintained in DMEM supplemented with 10% FBS and 1% pen/strep/glutamine, and the appropriate selection antibiotics when required. Lentiviruses were made in a 15 cm dish format by transfecting packaging cells (HEK293T) with a three-plasmid system (expression vector, psPAX2 and pMD2.G) and using Polyjet DNA transfection reagent (FroggaBio, SL100688.1). Viral transduction of HEK293T cells were performed with a multiplicity of infection (MOI) of 0.3. Infected cells were selected in puromycin-containing medium to eliminate uninfected cells and three aliquots of cells were collected for sampling of the initial (T0) cell population. Cells were treated with MG132 at concentrations of 0, 10, 25, or 50 µM. For the cell viability screen, surviving cells were collected and gDNA was extracted for identification of peptide inhibitors of cell toxicity. For the inhibition of a-syn aggregation screen, a protein fragment complementation assay (PCA) was used by transfecting cells with split YFP-a-syn constructs following stable expression of the peptides. Cells were sorted based on their YFP fluorescence intensities with a FACSVantage SE cell sorter (BD Bioscience) and gDNA was extracted for identification of peptides.
Genomic DNA (gDNA) from peptide expressing cells at different time-points was extracted using QIAamp DNA Blood Mini Kit. PCR amplifications of peptides from gDNA in parallel with the lentiviral plasmid library (naïve library) were performed using indexed Illumina PCR primers to incorporate both the Illumina adapter sequences and indexing sequences. Each 50 μl reaction contained 3.2 μg of template, 2× PCR buffer, 2× enhancer solution, 300 μM each dNTP, 900 nM each of Adapter A (5′-[…]-[…]-3′) and Adapter B (5′-[…]-[…]-3′), 1 mM MgSO4, 3.75 units of Platinum Pfx polymerase, and water to 50 μl. […]

**Q.** DEEIERQLKALG [PDpep1.3] was tested. Which “Striatal dopamine, DOPAC and HVA” value (A53T a-syn or EV rats) did it give?
**A.** restored compared with the Scramble1.3 condition

**Q.** “IPIQLKA [PDpep1, initial screen hit peptide IPIQLKA]” was tested. Which “Reads 10M MG132” value [1] did it give?
**A.** 20

**Q.** And the “Reads 25M MG132” value [1]?
**A.** 3859

**Q.** What about the “Reads 50M MG132” value [1] of the same substance?
**A.** 13308

**Q.** And the “Slope Norm Reads” value [1]?
**A.** 40.54

**Q.** What about the “Reads 0M MG132” value ([1]; Illumina reads, average Phred >30) of the same substance?
**A.** 168

From PMC10115881, “Disrupting the α-synuclein-ESCRT interaction with a peptide inhibitor mitigates neurodegeneration in preclinical models of Parkinson’s disease” (Nature Communications, 2023)
